Measurements published in US20120035180A1, “PHARMACEUTICAL COMPOSITION FOR TREATING CANCER COMPRISING CHLORIN E6-FOLIC ACID CONJUGATE COMPOUND AND CHITOSAN” (priority 2009, published 2012).

How the values were obtained:
[1] = tested on: Hela cells; assay: Phototoxicity, 24 h incubation, 1.5-15 joule/cm^2; assay type: cell-based; conditions: 670-690 nm
Procedure: In other experiment, the cells were incubated with photosensitizers at 37° C. for 24 hours, and irradiated by exposed on ice by a laser medical device “LD 680-2000” (wavelength of 670-690 nm) in a dose of 1.5-15 joule/cm^2.

[2] = tested on: HeLa tumor cells; assay: Cytotoxicity (antiproliferative assay) in the absence of light exposure; assay type: cell-based; conditions: 24 hr incubation
Procedure: Cytotoxicity was analyzed, considering the intensity of proliferative processes in cells, photosensitizer concentration, and dose of optical power. For each point, 3 flasks with cell monolayer were used.
The monolayer culture of HeLa tumor cells was chosen and used as the cell.
The culture of HeLa tumor cells was grown in nutrient medium 199 or in nutrient medium containing hemohydrolyzate supplemented with 10% fetal bovine serum and […] of kanamycin.
On day 4 after the cell culture was inoculated in the flasks (100,000 cells per 2.0 ml of nutrient medium), the photosensitizer was added at a concentration of 1, 2.5, 5.0, 10.0, 20.0, or 30.0 mg/ml.
Flasks with light-protective cover (dark cytotoxicity) were incubated at 37.5° C. for 1 hour. The cells were washed with Hank's solution 4 times. 2.0 ml of fresh nutrient medium were added, and the cells were irradiated at the temperature of melting ice for 5, 10, 15 or 20 mins by the light flux of a “METALAZ” laser medical device (wavelength: 627.8 nm, 578.2 or 510.6 nm) or “LD 680-2000” (wavelength: 670-690 nm), depending on the wavelength of maximum spectral absorption of the studied photosensitizer, at a dose of 40 J/cm^2. After 20-24 hours, the number of tumor cell was counted in Goriaev's chamber.

[3] = tested on: HeLa cell culture; assay: Phototoxicity (photodynamic activity), 3.5 h incubation, 3.3 joule/cm^2; assay type: cell-based; set-up: number of HELA cells (relative to the control): unit not given here; conditions: incubation 3.5 hours
Procedure: To examine the photodynamic effects of a photosensitizer on a HeLa cell culture, the photosensitizer solution was added to the nutrient media at a final concentration of 0.1, 0.5, 1.0, 5.0 or 10 mcg/ml on day 3 after transplanting the cell culture into flasks. The flasks were wrapped with a light protecting cover, and incubated at 37° C. for 3.5 hours. Then, the cells were washed with Hank's solution, and exposed on ice by a laser medical device “LD 680-2000” (wavelength: 670-690 nm) at a dose of 3.3 joule/cm^2. After 20-24 hours, the available cell monolayer was dispersed using a 0.02%-Versene solution, and the number of tumor cells was calculated in Goriaev's chamber. For each point, 3 flasks were used.

[4] = tested on: Hela cells; assay: Accumulation in Hela cells; assay type: cell-based; conditions: 2×10^−7 M/l, 37° C.
Procedure: The cellular accumulation and the targeted delivery of the photoactive compounds were investigated using Hela cells, which is one of the numerous tumor cell types that overexpress folate receptors.
Cells were cultivated for 3 days in medium 199, and transferred to Hank's solution/medium 199 (9/1). After 3 hours, the cell were collected by trypsin treatment from the substrate and placed in Hank's solution (10^5 κπ/ml). To cell suspensions, chlorin e6 conjugates were added at a concentration of 2×10^−7 M/l, and incubated at 37° C. After 1, 5, 10, 15, and 24 hours, the samples were centrifuged, the pellet was washed with the cooled Hank's solution, and transferred to Hank's solution at a concentration being equal to that in the initial suspension.

[5] = tested on: transporter of restored vectors (TRV); conditions: cited from earlier work

| SMILES | phototoxicity / photosensitivity in survival test [1] | cell survival rates [2] | number of HELA cells (relative to the control) ([3]; photoexposure 3.3 joule/cm^2, conc. 0.1 mcg/ml) | number of HELA cells (relative to the control) ([3]; photoexposure 3.3 joule/cm^2, conc. 0.5 mcg/ml) | number of HELA cells (relative to the control) ([3]; photoexposure 3.3 joule/cm^2, conc. 1.0 mcg/ml) | number of HELA cells (relative to the control) ([3]; photoexposure 3.3 joule/cm^2, conc. 5.0 mcg/ml) | number of HELA cells (relative to the control) ([3]; photoexposure 3.3 joule/cm^2, conc. 10.0 mcg/ml) | concentration in Hela cells ([4]; incubation time 1 hours) [relative units/10^4cl.] | concentration in Hela cells ([4]; incubation time 5 hours) [relative units/10^4cl.] | concentration in Hela cells ([4]; incubation time 10 hours) [relative units/10^4cl.] | concentration in Hela cells ([4]; incubation time 15 hours) [relative units/10^4cl.] | concentration in Hela cells ([4]; incubation time 24 hours) [relative units/10^4cl.] | affinity of the carrier (TRV) [5] |
| --- | --- | --- | --- | --- | --- | --- | --- | --- | --- | --- | --- | --- | --- |
| C=Cc1c(C)c2cc3nc(c(CC(=O)O)c4[nH]c(cc5nc(cc1[nH]2)C(C)=C5CC)c(C)c4C(=O)O)C(CCC(=O)O)C3C (stereo not drawn) [chlorin e6, 13-carboxy-17-[2-carboxyethyl]-15-carboxymethyl-17,18-trans-dihydro-3-vinyl-8-ethyl-2,7,12,18-tetramethylporphyrin] | little phototoxicity | about 90% | 87.1 | 83.6 | 64.7 | 19 | 3.8 | 0.86 | 1.45 | 1.72 | 0.81 | 0.40 |  |
| Nc1nc(O)c2nc(CNc3ccc(C(=O)N[C@@H](CCC(=O)O)C(=O)O)cc3)cnc2n1 [folic acid, N-[4(2-Amino-4-hydroxypteridin-6-ylmethylamino)benzoyl]-L(+)-glutamic acid] |  |  |  |  |  |  |  |  |  |  |  |  | about 200 μM |
